Experimental findings from US5674905A, “Bicyclooctane and bicycloheptane derivatives” (James Black Foundation Limited, priority 1992, dated 1997) are described below.

In one test the target is T1, CCKB receptor (Mus musculus, UniProt P56481).
T1 construct: The cortex was dissected, weighed and homogenised in 40 ml ice-cold buffer; from tissue; host or cells: cerebral cortex membranes of male CD1 mice (Charles River)
T1 sequence (P56481 1-453): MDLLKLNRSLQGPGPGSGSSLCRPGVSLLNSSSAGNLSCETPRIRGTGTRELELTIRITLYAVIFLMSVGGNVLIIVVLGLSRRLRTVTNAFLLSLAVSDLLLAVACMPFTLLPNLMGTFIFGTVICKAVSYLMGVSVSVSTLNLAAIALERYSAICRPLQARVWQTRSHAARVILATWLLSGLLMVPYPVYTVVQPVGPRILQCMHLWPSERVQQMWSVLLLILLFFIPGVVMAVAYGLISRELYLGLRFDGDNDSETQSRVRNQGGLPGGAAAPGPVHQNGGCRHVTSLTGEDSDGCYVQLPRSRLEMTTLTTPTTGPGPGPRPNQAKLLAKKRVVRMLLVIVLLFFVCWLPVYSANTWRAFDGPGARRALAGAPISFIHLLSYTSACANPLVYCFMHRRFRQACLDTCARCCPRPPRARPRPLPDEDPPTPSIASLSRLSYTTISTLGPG
Nature of the test: radioligand binding assay at the CCKB receptor in mouse cortical membranes ([125I]-CCK8S). As to conditions: 150 min at 21±3°; for Ki: read-out: CCKB pKi (converted). The method, then:
The compounds of the examples were tested for binding at the CCKB receptor in mouse cortical membranes by means of a radioligand binding assay. The procedure was as follows:
The whole brains from male mice (CD1 22-25 g; Charles River) were removed and placed in ice-cold buffer (pH7.2 @ 21±3 °) of the following composition (mM); 10 HEPES, 130 NaCl, 4.7 KCl, 5 MgCl2, 1 EDTA and containing 0.25 g.1^-1 bacitracin. The cortex was dissected, weighed and homogenised in 40 ml ice-cold buffer using a Teflon-in-glass homogeniser. The homogenate was centrifuged at 39,800 g for 20 min at @ 4°, the supernatant discarded and the pellet resuspended by homogenisation in fresh buffer. The homogenate was recentrifuged (39,800 g; 20 min @4°) and the final pellet was resuspended in HEPES buffer to give a tissue concentration of 2 mg.ml^-1 (original wet weight).
The membranes ([…]) were incubated for 150 min at 21±3° in a final volume of 0.5 ml with HEPES buffer containing [^125 I]-CCK8S (0.05 ml; 200 pM NEN 2200 Ci.mmol^-1) and competing compound. Total and non-specific binding of [^125 I]-CCK8S were defined using 0.05 ml of buffer and 0.05 ml of […] L-365,260, respectively. The assay was terminated by rapid filtration through pre-soaked Whatman GF/B filters using a Brandell Cell harvester. The filters were washed (3×3 ml) with ice-cold 50 mM Tris-HC1 (pH7.4 @ 4° C.) and bound radioactivity determined by counting (1 min.) in a gamma-counter.

The target in a further test is T2, gastrin receptors (Rattus norvegicus, UniProt P30553).
T2 construct: from tissue; host or cells: isolated perfused whole stomach of immature rats (33-50 g, ca. 21 days old)
T2 sequence (P30553 1-452): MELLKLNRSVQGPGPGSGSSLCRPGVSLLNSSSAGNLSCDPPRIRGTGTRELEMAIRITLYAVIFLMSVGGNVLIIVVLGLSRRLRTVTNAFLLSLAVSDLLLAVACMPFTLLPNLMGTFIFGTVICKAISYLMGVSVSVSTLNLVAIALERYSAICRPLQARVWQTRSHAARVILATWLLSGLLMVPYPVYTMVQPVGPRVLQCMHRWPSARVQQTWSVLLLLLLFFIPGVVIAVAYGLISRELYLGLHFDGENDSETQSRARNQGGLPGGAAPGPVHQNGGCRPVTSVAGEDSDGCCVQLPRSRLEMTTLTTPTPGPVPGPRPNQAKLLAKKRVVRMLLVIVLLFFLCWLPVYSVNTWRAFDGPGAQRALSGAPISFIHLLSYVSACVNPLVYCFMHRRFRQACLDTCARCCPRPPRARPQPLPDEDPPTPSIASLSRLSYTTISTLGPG
In words: gastrin antagonist activity in an immature rat stomach assay (pentagastrin-stimulated acid secretion). The note with it: isolated immature rat stomach, cumulative pentagastrin dose-response curves; for Kb: read-out: Gastrin pKB (converted); for Gastrin pKB: 60 min. How it is done:
The compounds of the examples were also tested for gastrin antagonist activity in an immature rat stomach assay. The procedure was as follows:
The oesophagus of immature rats (33-50 g, ca. 21 days old) was ligated at the level of the cardiac sphincter and the duodenal sphincter was cannulated. The stomach was excised and flushed with ca. 1 ml of unbuffered physiological saline solution. The fundus was punctured and cannulated. A further 4-5 ml of unbuffered solution was flushed through the stomach to ensure the preparation was not leaking. The stomach was lowered into a jacketed organ bath containing 40 ml of buffered solution containing 3×10^-8 M 5-methyl-furmethide, maintained at 37° and gassed vigorously with 95% O2 /5% CO2. The stomach was continuously perfused at a rate of 1 ml min^-1 with unbuffered solution gassed with 100% O2 with the perfusate passing over an internally referenced pH-electrode fixed 12 cm above the stomach.
After 120 min of stabilisation the drugs were added directly to the serosal solution in the organ bath and after a further 60 min cumulative pentagastrin dose-response curves were started. Changes in acid secretion were monitored and the curves analysed according to Black et. al., Br. J. Pharmacol., 1985, 86, 581.

The structures appear in SMILES notation.

For `O=C(O)c1cc(NC(=O)[C@H](Cc2ccccc2)NC(=O)C2C3CCC(c4ccccc43)C2C(=O)NCC23CC4CC(CC(C4)C2)C3)cc(C(=O)O)c1` (stereo partly drawn) [Example 61, exo-cis-7-(1S-(3,5-dicarboxyphenylaminocarbonyl)-2-phenyl-ethylaminocarbonyl)-8-(1-adamantylmethylaminocarbonyl)-2,3-benzobicyclo[2.2.2]octane], the Ki at CCKB receptor is 1000 nM. Besides, the Kb on gastrin receptors was 251 nM.

Consider `O=C(NCC12CC3CC(CC(C3)C1)C2)C1C2C=CC(c3ccccc32)C1C(=O)N[C@H](Cc1c[nH]c2ccccc12)C(=O)O` (single isomer, unassigned) [Example 16, endo-cis-7-(2-R-(3-indolyl)-1-carboxy-ethylaminocarbonyl)-8-(1-adamantylmethylaminocarbonyl)-5 , 6-benzobicyclo[2.2.2]oct-2-ene], for which, at CCKB receptor, the Ki was 316 nM. The Kb at gastrin receptors was 501 nM.

In the case of `COC(=O)C12CC(c3ccccc31)C(C(=O)NCC13CC4CC(CC(C4)C1)C3)C2C(=O)N1CCC[C@@H]1C(=O)O` (mixture of isomers) [Example 56, (±)-1-methoxycarbonyl-endo-cis-6-(2R-carboxypyrrolidinocarbonyl)-7-(1-adamantylmethylaminocarbonyl)-2,3-benzobicyclo[2.2.1]heptane], the “CCKB pKi” value on CCKB receptor is 5.1. The “Gastrin pKB” value at gastrin receptors is 5.6.

In the case of `O=C(NCC12CC3CC(CC(C3)C1)C2)C1C2C=CC(c3ccccc32)C1C(=O)N1CCC[C@@H]1C(=O)O` (stereo partly drawn) [Example 10, endo-cis-7-(2-R-carboxy-pyrrolidinocarbonyl)-8-(1-adamantylmethylaminocarbonyl)-5,6-benzobicyclo[2.2.2]oct-2-ene], the Ki on CCKB receptor is 2000 nM. For the same compound, on gastrin receptors, the Kb was 1580 nM.

For `COC(=O)[C@@H]1CCCN1C(=O)C1C2C=CC(c3ccccc32)C1C(=O)NCC12CC3CC(CC(C3)C1)C2` (stereo partly drawn) [Example 31, exo-cis-7-(2-S-methoxycarbonyl-pyrrolidinocarbonyl)-8-(1-adamantylmethylaminocarbonyl)-5,6-benzo-bicyclo[2.2.2]oct-2-ene], on gastrin receptors, the Kb is 501 nM.

As to `O=C(NCC12CC3CC(CC(C3)C1)C2)C1C2C=CC(c3ccccc32)C1C(=O)N1CCC[C@@H]1C(=O)O` (stereo partly drawn) [Example 9, exo-cis-7-(2-R-carboxy-pyrrolidinocarbonyl)-8-(1-adamantylmethylaminocarbonyl)-5,6-benzobicyclo-[2.2.2]oct-2-ene], at CCKB receptor, the Ki is 2510 nM. Besides, at gastrin receptors, the Kb was 794 nM.

As for `COC(=O)C12CC(c3ccccc31)C(C(=O)NCC13CC4CC(CC(C4)C1)C3)C2C(=O)O` (mixture of isomers) [Example 54, 1-methoxycarbonyl-endo-cis-(±)-7-(1-adamantylmethylaminocarbonyl)-2,3-benzobicyclo-[2.2.1] hept-6-carboxylic acid], the “CCKB pKi” value on CCKB receptor stood at 5.3. Also, the “Gastrin pKB” value at gastrin receptors amounted to 6.1.

For `O=C(O)c1cc(NC(=O)[C@H](Cc2ccccc2)NC(=O)C2C3C=CC(c4ccccc43)C2C(=O)NCC23CC4CC(CC(C4)C2)C3)cc(C(=O)O)c1` (stereo partly drawn) [Example 60, exo-cis-7-(1S-(3,5-dicarboxyphenylaminocarbonyl)-2-phenyl-ethylaminocarbonyl)-8-(1-adamantylmethylaminocarbonyl)-5,6-benzobicyclo[2.2.2]oct-2-ene], at CCKB receptor, the Ki was 316 nM. Besides, the Kb at gastrin receptors is 50.1 nM.

As to `COC(=O)[C@H](C)NC(=O)C1C2CCC(c3ccccc32)C1C(=O)NCC12CC3CC(CC(C3)C1)C2` (stereo partly drawn) [Example 23, exo-cis-7-(1-S-Methoxycarbonyl-ethylaminocarbonyl)-8-(1-adamantylmethylaminocarbonyl)-2,3-benzobicyclo[2.2.2]octane], the Ki at CCKB receptor is 398 nM. Further, the Kb at gastrin receptors was 316 nM.

Turning to `O=C(NCC12CC3CC(CC(C3)C1)C2)C1C2C=CC(c3ccccc32)C1C(=O)N1CCC[C@H]1C(=O)O` (stereo partly drawn) [Example 27, exo-cis-7-(2-S-carboxy-pyrrolidinocarbonyl)-8-(1-adamantylmethylaminocarbonyl)-5,6-benzo-bicyclo[2.2.2]oct-2-ene], the “CCKB pKi” value at CCKB receptor worked out at 6.2. For the same compound, the “Gastrin pKB” value at gastrin receptors is given as 6.5.

For `CC1=C(C)[C@H]2c3ccccc3[C@@H]1[C@@H](C(=O)O)[C@H]2C(=O)NCC12CC3CC(CC(C3)C1)C2` (relative stereo) [Example 11, exo-(±)-cis-8-(1-adamantylmethylaminocarbonyl)-2,3-dimethyl-5,6-benzobicyclo[2.2.2]oct-2-ene-7-carboxylic acid], the Ki at CCKB receptor was 1580 nM. For the same compound, at gastrin receptors, the Kb is 6310 nM.

On to `COC(=O)[C@H](C)NC(=O)C1C2C=CC(c3ccccc32)C1C(=O)NCC12CC3CC(CC(C3)C1)C2` (stereo partly drawn) [Example 7, exo-cis-7-(1-S-methoxycarbonyl-ethylaminocarbonyl)-8-(1-adamantylmethylaminocarbonyl)-5,6-benzobicyclo[2.2.2]oct-2-ene], for which, on CCKB receptor, the Ki was 251 nM. The Kb at gastrin receptors was 316 nM.

`CC1=C(C)[C@H]2c3ccccc3[C@@H]1[C@H](C(=O)O)[C@@H]2C(=O)NCC12CC3CC(CC(C3)C1)C2` (relative stereo) [Example 12, endo-(±)-cis-8-(1-adamantylmethylaminocarbonyl)-2,3-dimethyl-5,6-benzobicyclo[2.2.2]oct-2-ene-7-carboxylic acid]: the Ki at CCKB receptor was 794 nM. Moreover, on gastrin receptors, the Kb is 5010 nM.

`O=C(NCC12CC3CC(CC(C3)C1)C2)C1C2C=CC(c3ccccc32)C1C(=O)N1C[C@H](O)C[C@@H]1C(=O)O` (stereo partly drawn) [Example 29, exo-cis-7-(2-R-carboxy-4-R-hydroxy-pyrrolidinocarbonyl)-8-(1-adamantylmethylaminocarbonyl)-5,6-benzo-bicyclo[2.2.2]oct-2-ene]: the Ki at CCKB receptor is 2510 nM. The Kb on gastrin receptors was 2000 nM.

Consider `COC(=O)[C@H](C)NC(=O)C1C2C=CC(c3ccccc32)C1C(=O)NCC12CC3CC(CC(C3)C1)C2` (stereo partly drawn) [Example 8, endo-cis-7-(1--S--methoxycarbonylethylaminocarbonyl)-8-(1-adamantylmethylaminocarbonyl)-5,6-benzobicyclo[2.2.2]oct-2-ene], for which the Ki on CCKB receptor was 631 nM. The Kb at gastrin receptors was 501 nM.

With `O=C(O)CNC(=O)[C@@H]1CCCN1C(=O)C1C2CCC(c3ccccc32)C1C(=O)NCC12CC3CC(CC(C3)C1)C2` (stereo partly drawn) [Example 45, cis-exo-7-(2R-carboxymethylaminocarbonylpyrrolidinocarbonyl)-8-(1-adamantylmethylaminocarbonyl)-2,3-benzobicyclo[2.2.2]octane], on CCKB receptor, the “CCKB pKi” value was 5.6.
